Reference: patent US20140024653A1, “COMPOSITIONS AND METHODS FOR TREATING CANCER USING PI3K INHIBITOR AND MEK INHIBITOR” (priority 2011, published 2014)
Like-named read-outs stand apart in the source and are kept apart here.

Assays:
[1] = system: MCF7; experiment: SRB cell growth assay, 72 h; type: cell-based, human
[2] = system: human primary colon tumors CR-LRB-009C; experiment: antitumor activity against subcutaneous CR-LRB-009C xenografts; type: in vivo
Method: The human primary colon carcinoma CR-LRB-009C tumor model was established by implanting (SC) small tumor fragments and was maintained in SCID female mice using serial passages.
(§1) Treatments were administered on measurable tumors. […] Mice were checked daily, and adverse clinical reactions noted.
(§2) Animal body weights included the tumor weight.
(§3) The primary efficacy end points are ΔT/ΔC, percent median regression, partial and complete regressions (PR and CR). Statistical analyses were performed on SAS system release 8.2 for SUN4 via Everstat V5 software and SAS 9.2 software. A probability less than 5% (p<0.05) was considered as significant.

[3] = system: CASKI; experiment: SRB cell growth assay, 72 h; type: cell-based, human; conditions: single agent
[4] = system: HCT116; experiment: SRB cell growth assay, 72 h; type: cell-based, human
[5] = system: A549; experiment: SRB cell growth assay, 72 h; type: cell-based, human
[6] = system: MDAMB468; experiment: SRB cell growth assay, 72 h; type: cell-based, human; conditions: Homo sapiens, MDA-MB-468, most sensitive, z-score <−1.5
Method: (§4) Cell growth and treatment were performed in 96-well microtitre plates CELLSTAR® (Greiner Bio-One, Germany). Cells harvested from exponential phase cultures by trypsinization were plated in 150 μl of media at optimal seeding densities. The optimal seeding densities for each cell line were determined to ensure exponential growth for the duration of the experiment. All cells growing without anticancer agents were sub-confluent by the end of the treatment as determined by visual inspection.
(§5) 150 μl of cells, after a 24-hour pre-growth period, were treated by mixing with 50 μl of the compound containing media (resulting in a final DMSO concentration of 0.1%). The cells were allowed to grow at 37° C. for 72 hours. In addition, all experiments contained a few plates with cells that were processed for measurement immediately after the 24 hours recovery period. These plates contained information about the cell number that existed before treatment, at time zero, and served to calculate the cytotoxicity.
(§6) After treatment, cells were precipitated by addition of 10% TCA. Prior to fixation, the media was aspirated as described. After an hour of incubation at 4° C., the plates were washed two times with 400 μl of deionized water. Cells were then stained with 100 μl of a 0.08% wt/v SRB. The plates were allowed to sit for at least 30 min. and washed six times with 1% acetic acid to remove unbound stain. The plates were left to dry at room temperature and bound SRB was solubilized with 100 μl of 10 mM Tris base. Measurement of optical density was performed at 560 nm on a Victor 2 plate reader (Perkin Elmer, Germany). The SRB values for A375 and H460 cell lines were near to saturation (2.5 OD units) due to the high protein content of these cells, but not cell confluence. The measurements for these cells were performed at 520 nm instead of 560 nm.
(§7) Using these measurements, cellular responses can be calculated for incomplete inhibition of cell growth (GI), complete inhibition of cell growth (T GI) and net loss of cells (LC) due to compound activity. […] This is the drug concentration causing a 50% reduction compared to the net protein increase in control cells during the drug incubation period. In other words, GI50 is IC50 corrected for time zero. Similar to IC90, calculated GI90 values are also reported for all compounds tested. TGI was calculated from Ti=Tz. […] It was calculated as 100×[(Ti−Tz)/Tz]=−50. However, due to 72 hours treatment, low cell seeding density was required and LC50 could rarely be achieved.

[7] = system: resting Peripheral Blood Mononuclear Cells, PBMC; experiment: SRB cell growth assay, 72 h, non-proliferating cells; type: cell-based
Method: Cell lines were selected to represent 17 different indications with many different genetic variations and biochemical characteristics. In addition, the study included resting Peripheral Blood Mononuclear Cells, PBMC, as a model for non-proliferating cells.
as §4, with “inspection. […]” for “inspection.”
After treatment, cells were precipitated by addition of 10% TCA. […] Measurement of optical density was performed at 560 nm on a Victor 2 plate reader (Perkin Elmer, Germany). […]
Using these measurements, cellular responses can be calculated for incomplete inhibition of cell growth (GI), complete inhibition of cell growth (T GI) and net loss of cells (LC) due to compound activity. […] Similar to IC90, calculated GI90 values are also reported for all compounds tested. TGI was calculated from Ti=Tz. […] It was calculated as 100×[(Ti−Tz)/Tz]=−50. […]

[8] = system: human primary colon tumors CR-LRB-013P; experiment: antitumor activity against subcutaneous CR-LRB-013P xenografts; type: in vivo
Method: The human primary colon carcinoma CR-LRB-013P tumor model was established by implanting (SC) small tumor fragments and was maintained in SCID female mice using serial passages.
as §1, §2, §3

[9] = system: DU145; experiment: SRB cell growth assay, 72 h; type: cell-based, human; conditions: single agent
[10] = system: human colon carcinoma HCT 116; conditions: for tolerability: as single agents
Method: Mice were over 18 g at start of treatment after an acclimatization time of at least 5 days. […] The mice were housed on a 12 hours light/dark cycle.
Human colon carcinoma HCT 116 cells were purchased at American Type Culture Collection [(ATCC), Rockville, Md., USA). The HCT 116 cells were cultured in Dulbecco's modified Eagle's medium (DMEM) (Invitrogen).
The animals required to begin a given experiment were pooled and implanted monolaterally on day 0. Treatments were administered on measurable tumors. The solid tumors were allowed to grow to the desired volume range (animals with tumors not in the desired range were excluded). The mice were then pooled and unselectively distributed to the various treatment and control groups. […] The dosages are expressed in mg/kg, based on the body weight at start of therapy. Mice were checked daily, and adverse clinical reactions noted. Each group of mice was weighed as a whole daily until the weight nadir was reached. Then, groups were weighed once to thrice weekly until the end of the experiment. Tumors were measured with a caliper 2 to 3 times weekly until final sacrifice for sampling time, tumor reached 2000 mm^3 or until the animal died (whichever comes first). Solid tumor volumes were estimated from two-dimensional tumor measurements and calculated according to the following equation:
Changes in tumor volume for each treated (T) and control (C) group were calculated for each tumor by subtracting the tumor volume on the day of first treatment (staging day) from the tumor volume on the specified observation day. The median ΔT is calculated for the treated group, and the median ΔC is calculated for the control group. Then the ratio ΔT/ΔC is calculated and expressed as a percentage. The dose is considered as therapeutically active when ΔT/ΔC is lower than 40% and very active when ΔT/ΔC is lower than 10%.
The percent of tumor regression is defined as the % of tumor volume decrease in the treated group at a specified observation day compared to its volume on the first day of treatment. At a specific time point and for each animal, % regression is calculated. The median % regression is then calculated for the group using the following equation:
Partial regression: Regressions are defined as partial if the tumor volume decreases to 50% of the tumor volume at the start of treatment.
Complete regression: The CR is achieved when tumor volume=0 mm^3 (CR is considered when tumor volume cannot be recorded).

[11] = system: COLO678; experiment: SRB cell growth assay, 72 h; type: cell-based; conditions: Homo sapiens, COLO-678, non-sensitive, z score >1.5
Method: as §4, §5, §6, §7

[12] = system: A673; experiment: SRB cell growth assay, 72 h; type: cell-based, human; conditions: single agent
[13] = system: DLD1; experiment: SRB cell growth assay, 72 h; type: cell-based, human; conditions: single agent
[14] = system: BT20; experiment: SRB cell growth assay, 72 h; type: cell-based, human; conditions: single agent
[15] = system: SKBR3; experiment: SRB cell growth assay, 72 h; type: cell-based, human
[16] = system: EJ28; experiment: SRB cell growth assay, 72 h; type: cell-based, human; conditions: single agent
[17] = (2b) 20 mg/kg PO daily days 11-21
[18] = as single agents or used in combination
[19] = (2b) 20 mg/kg PO daily days 33-50
[20] = study 1, (2b) 30 mg/kg PO daily days 11-18
[21] = study 2, (2b) 20 mg/kg PO daily days 11-18
[22] = study 4, (2b) 20 mg/kg PO daily days 11-20

`CCn1c(=O)c(-c2ccn[nH]2)cc2c(C)nc(N)nc21` [Compound (2b), 2-amino-8-ethyl-4-methyl-6-(1H-pyrazol-5-yl)pyrido[2,3-d]pyrimidin-7(8H)-one] was tested, and the GI50 ([1]; Homo sapiens) was 1.6 µM, the “z-score MSC0765” value ([1]; single agent) was 0.30 and the “Average body weight change in % per mouse at nadir” value [2, 17] was −7.4 (19) %. For the same compound, the Drug death [2, 17] was 0/7, the “Median ΔT/ΔC in % day 21” value [2, 17] was 51% and the “Regressions Complete” value [2, 17] was 0/7. For the same compound, the “Regressions Partial” value [2, 17] was 0/7, the tolerability [2, 18] was “tolerated, inducing some BWL but not reaching toxicity” and the “z-score MSC0765” value [3] was −0.23. The GI50 ([4]; Homo sapiens, HCT-116, non-sensitive, z score >1.5) was greater than 4 µM, the “z-score MSC0765” value ([4]; single agent) was 1.90 and the GI50 ([5]; Homo sapiens) was 1.15 µM. The “z-score MSC0765” value ([5]; single agent) was −0.20, the GI50 [6] was less than 0.5 µM and the “activity in resting (arrested) PBMC” value [7] was “no activity”. The “Average body weight change in % per mouse at nadir” value [8, 19] was −5.2 (50) %, the Drug death [8, 19] was 0/7 and the “Regressions Complete” value [8, 19] was 0/7. For the same compound, the “Regressions Partial” value [8, 19] was 0/7, the tolerability [8, 18] was “tolerated, inducing some BWL but not reaching toxicity” and the “z-score MSC0765” value [9] was −0.05. The “Average body weight change in % per mouse at nadir” value [10, 20] was −6.7 (18) %, the Drug death [10, 20] was 0/7 and the “Median ΔT/ΔC in % day 18” value [10, 20] was 77%. For the same compound, the “Regressions Complete” value [10, 20] was 0/7, the “Regressions Partial” value [10, 20] was 1/7 and the “Average body weight change in % per mouse at nadir” value [10, 21] was −3.7 (15) %. For the same compound, the Drug death [10, 21] was 0/7, the “Median ΔT/ΔC in % day 18” value [10, 21] was 71% and the “Regressions Complete” value [10, 21] was 0/7. The “Regressions Partial” value [10, 21] was 0/7, the tolerability ([10]; study 2) was “well-tolerated, inducing minimal BWL” and the “Average body weight change in % per mouse at nadir” value [10, 22] was −4.8 (20) %. The Drug death [10, 22] was 0/10, the “Regressions Complete” value [10, 22] was 0/10 and the “Regressions Partial” value [10, 22] was 0/10. The tolerability ([10]; study 4) was “well-tolerated, inducing minimal BWL”, the GI50 [11] was greater than 4 µM and the “z-score MSC0765” value [12] was 0.96. For the same compound, the “activity (cell growth inhibition)” value ([12]; up to 50 μM) was “non-sensitive”, the “z-score MSC0765” value [13] was 0.81 and the “z-score MSC0765” value [14] was 0.32. The GI50 ([15]; Homo sapiens, SK-BR-3, most sensitive, z-score <−1.5) was less than 0.5 µM, the sensitivity ([15]; single agent) was “very sensitive” and the “z-score MSC0765” value ([15]; single agent) was −2.18. For the same compound, the “z-score MSC0765” value [16] was 1.25.
